Measurements published in paper PMC5218480 (PLoS ONE, 2017).

System: MV-4-11 cells
Assay: Gene expression microarray analysis (Affymetrix PrimeView) and GSEA
Format: cell-based, human
Design: RFU PODN (11730768_x_at) / Fold change /veh PODN (11730768_x_at) / RFU LINC00158 (11744669_a_at) / Fold change /veh LINC00158 (11744669_a_at) / RFU DUSP10 (11751237_a_at) / Fold change /veh DUSP10 (11751237_a_at) / RFU ID3 (11757404_x_at) / Fold change /veh ID3 (11757404_x_at) / RFU PLEKHG5 (11737974_s_at) / Fold change /veh PLEKHG5 (11737974_s_at) / RFU LRRC4B (11730491_at) / Fold change /veh LRRC4B (11730491_at) / RFU GIMAP4 (11747438_a_at) / Fold change /veh GIMAP4 (11747438_a_at) / RFU KRT8 (11758183_x_at) / Fold change /veh KRT8 (11758183_x_at) / RFU CNN1 (11734310_a_at) / Fold change /veh CNN1 (11734310_a_at) / RFU VPS37D (11726825_at) / Fold change /veh VPS37D (11726825_at) / RFU C10orf10 (11716522_x_at) / Fold change /veh C10orf10 (11716522_x_at) / RFU KIR2DL2 /// KIR2DL4 /// KIR2DL5A /// KIR2DL5B /// KIR2DS1 /// KIR2DS2 /// KIR2DS3 /// KIR2DS4 /// KIR3DL3 /// KIR3DL3 /// KIR3DS1 (11738374_at) / Fold change /veh KIR2DL2 /// KIR2DL4 /// KIR2DL5A /// KIR2DL5B /// KIR2DS1 /// KIR2DS2 /// KIR2DS3 /// KIR2DS4 /// KIR3DL3 /// KIR3DL3 /// KIR3DS1 (11738374_at) / RFU C1QL1 (11718748_at) / Fold change /veh C1QL1 (11718748_at) / RFU TMPRSS4 (11747572_a_at) / Fold change /veh TMPRSS4 (11747572_a_at) / RFU HAMP (11756126_x_at) / Fold change /veh HAMP (11756126_x_at) / RFU RNFT2 (11725882_a_at) / Fold change /veh RNFT2 (11725882_a_at) / RFU NR4A2 (11747474_a_at) / Fold change /veh NR4A2 (11747474_a_at) / RFU ABCC12 (11746883_a_at) / Fold change /veh ABCC12 (11746883_a_at) / RFU TMEM136 (11760407_x_at) / Fold change /veh TMEM136 (11760407_x_at) / RFU CLDN22 /// WWC2 (11732394_at) / Fold change /veh CLDN22 /// WWC2 (11732394_at) / RFU HLA-DPB1 (11760878_x_at) / Fold change /veh HLA-DPB1 (11760878_x_at) / RFU SPINT1 (11716480_a_at) / Fold change /veh SPINT1 (11716480_a_at) / RFU GAP43 (11754022_s_at) / Fold change /veh GAP43 (11754022_s_at) / RFU A4GNT (11735810_at) / Fold change /veh A4GNT (11735810_at) / RFU PRB3 (11715151_x_at) / Fold change /veh PRB3 (11715151_x_at) / RFU TUBB4B (11761932_at) / Fold change /veh TUBB4B (11761932_at) / RFU CAPN14 (11732068_a_at) / Fold change /veh CAPN14 (11732068_a_at) / RFU TMCC2 (11721928_a_at) / Fold change /veh TMCC2 (11721928_a_at) / RFU IRGQ (11745062_a_at) / Fold change /veh IRGQ (11745062_a_at) / RFU FAM174B (11720279_a_at) / Fold change /veh FAM174B (11720279_a_at) / RFU TMPRSS4 (11748680_a_at) / Fold change /veh TMPRSS4 (11748680_a_at) / RFU FAM212B (11763350_a_at) / Fold change /veh FAM212B (11763350_a_at) / RFU PLEKHG5 (11743358_a_at) / Fold change /veh PLEKHG5 (11743358_a_at) / RFU ZSCAN30 (11745921_a_at) / Fold change /veh ZSCAN30 (11745921_a_at) / RFU CMKLR1 (11741424_a_at) / Fold change /veh CMKLR1 (11741424_a_at) / RFU LOC101060620 /// MAPK8IP1 (11723275_at) / Fold change /veh LOC101060620 /// MAPK8IP1 (11723275_at) / RFU SPTSSB (11747773_x_at) / Fold change /veh SPTSSB (11747773_x_at) / RFU PRSS12 (11739890_at) / Fold change /veh PRSS12 (11739890_at) / RFU BIN1 (11741810_x_at) / Fold change /veh BIN1 (11741810_x_at) / RFU WNT11 (11732464_a_at) / Fold change /veh WNT11 (11732464_a_at) / RFU C10orf10 (11716521_a_at) / Fold change /veh C10orf10 (11716521_a_at) / RFU C5orf56 (11738089_at) / Fold change /veh C5orf56 (11738089_at) / RFU CYB561 (11721691_x_at) / Fold change /veh CYB561 (11721691_x_at) / RFU ANKRD19P (11752326_a_at) / Fold change /veh ANKRD19P (11752326_a_at) / RFU OR2T12 /// OR2T33 /// OR2T8 (11738714_s_at) / Fold change /veh OR2T12 /// OR2T33 /// OR2T8 (11738714_s_at) / RFU VCAN (11748164_a_at) / Fold change /veh VCAN (11748164_a_at) / RFU JSRP1 (11732532_at) / Fold change /veh JSRP1 (11732532_at) / RFU KRTAP10-11 (11738290_x_at) / Fold change /veh KRTAP10-11 (11738290_x_at) / RFU MYO3A (11730013_a_at) / Fold change /veh MYO3A (11730013_a_at) / RFU EBF3 (11725865_a_at) / Fold change /veh EBF3 (11725865_a_at) / RFU CAMK2N1 (11719241_x_at) / Fold change /veh CAMK2N1 (11719241_x_at) / RFU C5orf56 (11738088_a_at) / Fold change /veh C5orf56 (11738088_a_at) / RFU OLFML3 (11715873_a_at) / Fold change /veh OLFML3 (11715873_a_at) / RFU LOC100653217 /// NTM (11731650_a_at) / Fold change /veh LOC100653217 /// NTM (11731650_a_at) / RFU MAPK11 (11762145_a_at) / Fold change /veh MAPK11 (11762145_a_at) / RFU FIZ1 (11724087_x_at) / Fold change /veh FIZ1 (11724087_x_at) / RFU OASL (11726364_x_at) / Fold change /veh OASL (11726364_x_at) / RFU SOX15 (11748057_x_at) / Fold change /veh SOX15 (11748057_x_at) / RFU CD79A (11719716_a_at) / Fold change /veh CD79A (11719716_a_at) / RFU HIST1H1D (11736915_at) / Fold change /veh HIST1H1D (11736915_at) / RFU CASKIN2 (11723855_a_at) / Fold change /veh CASKIN2 (11723855_a_at) / RFU LOC730098 (11760151_x_at) / Fold change /veh LOC730098 (11760151_x_at) / RFU OR4N2 (11742367_at) / Fold change /veh OR4N2 (11742367_at) / RFU PRRT2 (11749266_a_at) / Fold change /veh PRRT2 (11749266_a_at) / RFU SNX32 (11753110_a_at) / Fold change /veh SNX32 (11753110_a_at) / RFU CDHR5 (11726645_a_at) / Fold change /veh CDHR5 (11726645_a_at) / RFU RCAN1 (11760418_a_at) / Fold change /veh RCAN1 (11760418_a_at) / RFU FAM167A (11723789_a_at) / Fold change /veh FAM167A (11723789_a_at) / RFU FAM26E (11764081_at) / Fold change /veh FAM26E (11764081_at) / RFU ISYNA1 (11749810_s_at) / Fold change /veh ISYNA1 (11749810_s_at) / RFU ACY1 (11761880_at) / Fold change /veh ACY1 (11761880_at) / RFU 11764098_at / Fold change /veh 11764098_at / RFU SAMD14 (11745864_x_at) / Fold change /veh SAMD14 (11745864_x_at) / RFU NPB (11741838_a_at) / Fold change /veh NPB (11741838_a_at) / RFU TMPRSS6 (11731388_a_at) / Fold change /veh TMPRSS6 (11731388_a_at) / RFU KRTAP10-2 (11738614_at) / Fold change /veh KRTAP10-2 (11738614_at) / RFU ARHGAP8 /// PRR5-ARHGAP8 (11727945_x_at) / Fold change /veh ARHGAP8 /// PRR5-ARHGAP8 (11727945_x_at) / RFU KRTAP5-7 /// NADSYN1 (11734609_at) / Fold change /veh KRTAP5-7 /// NADSYN1 (11734609_at) / RFU RASL12 (11751679_a_at) / Fold change /veh RASL12 (11751679_a_at) / RFU CDKN2B (11736163_a_at) / Fold change /veh CDKN2B (11736163_a_at) / RFU PRF1 (11729649_at) / Fold change /veh PRF1 (11729649_at) / RFU, ZNF638 /// ZNF638-IT1 / Fold change vs veh, ZNF638 /// ZNF638-IT1 / RFU, PANK3 / Fold change vs veh, PANK3 / RFU, SH3YL1 / Fold change vs veh, SH3YL1 / RFU, ZEB2 / Fold change vs veh, ZEB2 / RFU, NRIP1 / Fold change vs veh, NRIP1 / RFU, PTTG1IP / Fold change vs veh, PTTG1IP / RFU, CAPN2 / Fold change vs veh, CAPN2 / RFU, MED14 / Fold change vs veh, MED14 / RFU, SNORA58 / Fold change vs veh, SNORA58 / RFU, C1orf63 / Fold change vs veh, C1orf63 / RFU, LRRFIP1 / Fold change vs veh, LRRFIP1 / RFU, NDUFAF7 / Fold change vs veh, NDUFAF7 / RFU, SLC12A2 / Fold change vs veh, SLC12A2 / RFU, IBTK / Fold change vs veh, IBTK / RFU, ESF1 / Fold change vs veh, ESF1 / Fold change vs veh, TMEM50B / RFU, TAOK1 / Fold change vs veh, TAOK1 / RFU, ACBD3 / Fold change vs veh, ACBD3 / RFU, TMA16 / Fold change vs veh, TMA16 / RFU, RWDD3 / Fold change vs veh, RWDD3 / RFU, BCAT1 / Fold change vs veh, BCAT1 / RFU, EDEM3 / Fold change vs veh, EDEM3 / RFU, TMEM33 / Fold change vs veh, TMEM33 / RFU, WDR75 / Fold change vs veh, WDR75 / RFU, AHCTF1 / Fold change vs veh, AHCTF1 / RFU, TFRC / Fold change vs veh, TFRC / RFU, ZDHHC17 / Fold change vs veh, ZDHHC17 / RFU, NOM1 / Fold change vs veh, NOM1 / RFU, ARL8B / Fold change vs veh, ARL8B / RFU, ZBTB11 / Fold change vs veh, ZBTB11 / RFU, TAMM41 / Fold change vs veh, TAMM41 / RFU, KIAA1704 /// LOC100996395 / Fold change vs veh, KIAA1704 /// LOC100996395 / RFU, ING1 / Fold change vs veh, ING1 / RFU, TRMT61B / Fold change vs veh, TRMT61B / RFU, FUBP3 / Fold change vs veh, FUBP3 / RFU, TP53 / Fold change vs veh, TP53 / RFU, TNKS2 / Fold change vs veh, TNKS2 / RFU, ZFP14 / Fold change vs veh, ZFP14 / RFU, ACTR2 / Fold change vs veh, ACTR2 / RFU, PPP3R1 / Fold change vs veh, PPP3R1 / RFU, PIK3R1 / Fold change vs veh, PIK3R1 / RFU, HNRNPA1 / Fold change vs veh, HNRNPA1 / RFU, RNF170 / Fold change vs veh, RNF170 / RFU, ZNF28 / Fold change vs veh, ZNF28 / RFU, RNGTT / Fold change vs veh, RNGTT / RFU, OGT / Fold change vs veh, OGT / RFU, BRD1 / Fold change vs veh, BRD1 / RFU, MARS / Fold change vs veh, MARS / RFU, ZNF655 / Fold change vs veh, ZNF655 / RFU, FAHD1 / Fold change vs veh, FAHD1 / RFU, BDP1 / Fold change vs veh, BDP1 / RFU, LRRCC1 / Fold change vs veh, LRRCC1 / RFU, ARID1A / Fold change vs veh, ARID1A / RFU, ZNF146 / Fold change vs veh, ZNF146 / RFU, ZNF330 / Fold change vs veh, ZNF330 / RFU, GPN3 / Fold change vs veh, GPN3 / RFU, C9orf123 / Fold change vs veh, C9orf123 / RFU, N4BP2L2 / Fold change vs veh, N4BP2L2 / RFU, ARFIP1 / Fold change vs veh, ARFIP1 / RFU, FAM179B / Fold change vs veh, FAM179B / RFU, BCL10 / Fold change vs veh, BCL10 / RFU, UHRF1BP1L / Fold change vs veh, UHRF1BP1L / RFU, BET1 / Fold change vs veh, BET1 / RFU, CNOT2 / Fold change vs veh, CNOT2 / RFU, ZNF268 / Fold change vs veh, ZNF268 / Fold change vs veh, ZNF507 / RFU, DGCR2 / Fold change vs veh, DGCR2 / RFU, WDSUB1 / Fold change vs veh, WDSUB1 / Fold change vs veh, HSP90B1 /// MIR3652 / RFU, ADSS / Fold change vs veh, ADSS / RFU, GK / Fold change vs veh, GK / RFU, ZNF148 / Fold change vs veh, ZNF148 / RFU, TAF9 / Fold change vs veh, TAF9 / RFU, SLC1A5 / Fold change vs veh, SLC1A5 / RFU, SLMO2 / Fold change vs veh, SLMO2 / RFU, ABCC4 / Fold change vs veh, ABCC4 / RFU, LOC101060439 /// RAP1B / Fold change vs veh, LOC101060439 /// RAP1B / RFU, RFX7 / Fold change vs veh, RFX7 / RFU, GTPBP10 / Fold change vs veh, GTPBP10 / RFU, CNEP1R1 / Fold change vs veh, CNEP1R1 / RFU, BIVM-ERCC5 /// ERCC5 / Fold change vs veh, BIVM-ERCC5 /// ERCC5 / RFU, ILF3 / Fold change vs veh, ILF3 / RFU 11762660_at / Fold change /veh 11762660_at / RFU VCAN (11757783_s_at) / Fold change /veh VCAN (11757783_s_at) / RFU DDX43 (11728927_at) / Fold change /veh DDX43 (11728927_at) / RFU KRT8 (11758188_x_at) / Fold change /veh KRT8 (11758188_x_at) / RFU NKD1 (11759106_at) / Fold change /veh NKD1 (11759106_at) / RFU SRD5A1 (11742802_a_at) / Fold change /veh SRD5A1 (11742802_a_at) / RFU TPSAB1 /// TPSB2 (11721975_s_at) / Fold change /veh TPSAB1 /// TPSB2 (11721975_s_at) / RFU GSTM3 (11746129_a_at) / Fold change /veh GSTM3 (11746129_a_at) / RFU IL23R (11737362_x_at) / Fold change /veh IL23R (11737362_x_at) / RFU TMEM51 (11727254_a_at) / Fold change /veh TMEM51 (11727254_a_at) / RFU PIWIL2 (11732686_x_at) / Fold change /veh PIWIL2 (11732686_x_at) / RFU ORM1 (11744905_x_at) / Fold change /veh ORM1 (11744905_x_at) / RFU CCDC152 (11743942_at) / Fold change /veh CCDC152 (11743942_at) / RFU ECM1 (11717891_a_at) / Fold change /veh ECM1 (11717891_a_at) / RFU IL23R (11748794_a_at) / Fold change /veh IL23R (11748794_a_at) / RFU TNFAIP8L3 (11732012_x_at) / Fold change /veh TNFAIP8L3 (11732012_x_at) / RFU MBOAT4 (11741988_at) / Fold change /veh MBOAT4 (11741988_at) / RFU 11764193_at / Fold change /veh 11764193_at / RFU TMEM53 (11763286_at) / Fold change /veh TMEM53 (11763286_at) / RFU MAGEB2 (11727129_at) / Fold change /veh MAGEB2 (11727129_at) / RFU TMEM200A (11744735_a_at) / Fold change /veh TMEM200A (11744735_a_at) / RFU CCDC152 (11751479_a_at) / Fold change /veh CCDC152 (11751479_a_at) / RFU FAM211A (11726209_a_at) / Fold change /veh FAM211A (11726209_a_at) / RFU RGS16 (11746705_a_at) / Fold change /veh RGS16 (11746705_a_at) / RFU VCAN (11755009_s_at) / Fold change /veh VCAN (11755009_s_at) / RFU RHOB (11743442_s_at) / Fold change /veh RHOB (11743442_s_at) / RFU RGS16 (11720943_a_at) / Fold change /veh RGS16 (11720943_a_at) / RFU RGS16 (11720944_at) / Fold change /veh RGS16 (11720944_at) / RFU, VPS4B / Fold change vs veh, VPS4B / RFU, CREB1 / Fold change vs veh, CREB1 / RFU, DNAJC13 / Fold change vs veh, DNAJC13 / RFU, GNAQ / Fold change vs veh, GNAQ / RFU, CDK5R1 / Fold change vs veh, CDK5R1 / RFU, ZRANB3 / Fold change vs veh, ZRANB3 / RFU, CUL4A / Fold change vs veh, CUL4A / RFU, CCNY / Fold change vs veh, CCNY / RFU, UFL1 / Fold change vs veh, UFL1 / RFU, COG3 / Fold change vs veh, COG3 / RFU, DIAPH2 / Fold change vs veh, DIAPH2 / RFU, SKA2 / Fold change vs veh, SKA2 / RFU, AFF3 / Fold change vs veh, AFF3 / RFU, LMF1 / Fold change vs veh, LMF1 / RFU, IPO11 / Fold change vs veh, IPO11 / RFU, DFFB / Fold change vs veh, DFFB / RFU, FOXP1 / Fold change vs veh, FOXP1 / RFU, CARD8 / Fold change vs veh, CARD8 / RFU, STRN3 / Fold change vs veh, STRN3 / RFU, ADK / Fold change vs veh, ADK / RFU, RASSF2 / Fold change vs veh, RASSF2 / RFU, WIPF1 / Fold change vs veh, WIPF1 / RFU, LARP1B / Fold change vs veh, LARP1B / RFU, RASA1 / Fold change vs veh, RASA1 / RFU, RB1 / Fold change vs veh, RB1 / RFU, PPFIA1 / Fold change vs veh, PPFIA1 / RFU, MAT2A / Fold change vs veh, MAT2A / RFU, CCT5 / Fold change vs veh, CCT5 / RFU, WDR92 / Fold change vs veh, WDR92 / RFU, CUX1 / Fold change vs veh, CUX1 / RFU, TTC7A / Fold change vs veh, TTC7A / RFU, TMEM135 / Fold change vs veh, TMEM135 / RFU, DEPTOR / Fold change vs veh, DEPTOR / RFU, CPM / Fold change vs veh, CPM / RFU, DNAJB6 / Fold change vs veh, DNAJB6 / RFU, CACNA2D3 / Fold change vs veh, CACNA2D3 / RFU, DTX4 / Fold change vs veh, DTX4 / RFU, TFCP2 / Fold change vs veh, TFCP2 / RFU, GMCL1 /// GMCL1P1 / Fold change vs veh, GMCL1 /// GMCL1P1 / RFU, AEBP2 / Fold change vs veh, AEBP2 / RFU, SNHG1 /// SNORD22 /// SNORD25 /// SNORD26 /// SNORD27 /// SNORD28 /// SNORD29 /// SNORD31 / Fold change vs veh, SNHG1 /// SNORD22 /// SNORD25 /// SNORD26 /// SNORD27 /// SNORD28 /// SNORD29 /// SNORD31 / Fold change (Aza/veh), C12orf56 (ProbeSet 11735607_a_at) / Fold change (ACY-1035/veh), C12orf56 (ProbeSet 11735607_a_at) / Fold change (Aza/veh), FGFR1OP (ProbeSet 11751329_s_at) / Fold change (ACY-1035/veh), FGFR1OP (ProbeSet 11751329_s_at) / Fold change (Aza/veh), VPS36 (ProbeSet 11739960_a_at) / Fold change (ACY-1035/veh), VPS36 (ProbeSet 11739960_a_at) / RFU SYPL1 (11715823_x_at) / Fold change /veh SYPL1 (11715823_x_at) / RFU IGFBP7 (11715501_s_at) / Fold change /veh IGFBP7 (11715501_s_at) / RFU REEP3 (11722064_at) / Fold change /veh REEP3 (11722064_at) / RFU IGLL1 (11728026_x_at) / Fold change /veh IGLL1 (11728026_x_at): dose or concentration left out as unconfirmed
Settings: ProbeSet 11721969_s_at; LIST B

In the case of Nc1ncn([C@@H]2O[C@H](CO)[C@@H](O)[C@H]2O)c(=O)n1 [azacitidine], the “Fold change vs veh, BDP1” value is reported as 0.86.
